The values below come from the METLIN SMRT retention time set (Domingo-Almenara et al. 2019).

This series can be described thus: gradient 5% acetonitrile 3 min, to 50% in 2 min, to 85% in 15 min, held 3 min, 100 µL/min. The following applies: column: Zorbax Extend-C18 2.1 x 50 mm; eluents: water / acetonitrile, 0.1% formic acid. The procedure, abridged: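 Over 3 months, pure standards in mixtures of ~100 molecules were run by HPLC coupled to a quadrupole time-of-flight mass spectrometer in positive and negative ionization mode. The column was a Zorbax Extend-C18 (2.1 × 50 mm, 1.8 μm) at 100 μL/min, eluted with water and acetonitrile each holding 0.1% formic acid, with 40 μL dead and 900 μL dwell volumes. Retention time was determined from adduct peaks chosen by software and checked manually.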
`Cc1ccc(N2C(=O)C3N=NN(Cc4nc(-c5ccccc5)no4)C3C2=O)cc1` (stereo not given) yielded an RP-LC retention time of 975 s. In turn, `CCc1cc(-c2csc(S(=O)(=O)N3CC=C(c4ccccc4)CC3)c2)on1` gave an RP-LC retention time of 1170 s. For `Cc1cccc(Cn2nc(-c3nc(C(C)(C)C)no3)ccc2=O)c1`, the RP-LC retention time is 1110 s. In turn, `CCCn1c(CCNC(=O)c2ccc(Cl)cc2)nc2cccnc21` registered an RP-LC retention time of 722 s. Next, `Nc1nc(F)nc2c1ncn2[C@@H]1O[C@H](CO)[C@@H](O)[C@@H]1O`: 573 s; `CN(C)C(=O)c1ccc2c(c1)N(CC(=O)NCCN1CCCCCC1)C(=O)C1CCCCN21` (stereo not given): 615 s; `CSc1cnc(Nc2nc(-c3ccc(Br)cc3)cs2)nc1`: 1190 s. Next, `Cc1ccc(S(=O)(=O)CCc2noc(-c3cccc4[nH]ccc34)n2)cc1`: 887 s. `O=C(NCCC1CCN(C(=O)Nc2ccc(F)cc2F)CC1)C1CC1`: the RP-LC retention time is 691 s. On to `O=C(CCn1cnc2cc(-c3noc(C4CC(=O)N(c5ccccc5)C4)n3)ccc21)N1CCCC1` (stereo not given), for which the RP-LC retention time was determined as 659 s. Regarding `CCS(=O)(=O)c1nc2ccc(NS(=O)(=O)c3ccccc3Cl)cc2s1`, the RP-LC retention time was 858 s. For the compound `CCn1c(=O)c2ccn(CC(=O)NCc3cccnc3)c2n(CC)c1=O`, the RP-LC retention time turned out to be 568 s. `CCN1C(=O)c2cccnc2Sc2cc(CNC(=O)c3cccnc3SC)ccc21` registered an RP-LC retention time of 721 s. Take `CCCCNc1nnc(-c2nnc(C)o2)c2ccccc12`: the RP-LC retention time stood at 637 s.

`COCCOCc1nc(C2CCCN2C(=O)c2ccoc2)no1` (stereo not given) gave an RP-LC retention time of 656 s. `N#Cc1ccc(-c2nc(-c3ccc4c(c3)nnn4CCC(=O)N3CCOCC3)no2)cc1`: the RP-LC retention time came to 786 s.

`O=C(C1CCN(S(=O)(=O)c2cc(-c3noc(C4CC4)n3)cs2)CC1)N1CCCC1`: the RP-LC retention time turned out to be 829 s.

For the compound `COc1ccc(NC(=O)Cn2cc(C(=O)N3CCCCC3)c(=O)c3ccc(C)nc32)cc1`, the RP-LC retention time was 713 s. Next, `Cc1ccc(Cn2c(C(=O)NC3CCC(C)CC3)cc3sccc32)cc1` (stereo not given): 1340 s; `NS(=O)(=O)c1ccc(CCNCc2ccc(-c3ccc(Cl)cc3Cl)o2)cc1`: 800 s. Consider `Cc1cc2nn(CC(=O)NCC3CCCO3)c(=O)n2c(Nc2ccccc2C)n1` (stereo not given), for which the RP-LC retention time was 808 s. Compound `CCOC(=O)c1c(N)n(Cc2ccccc2)c2nc3ccccc3nc12` showed an RP-LC retention time of 739 s. `COc1ccc(Cl)cc1NC(=O)CSc1ccc(-c2ccco2)nn1` displayed an RP-LC retention time of 944 s. Next, `Cc1nc(-c2cccnc2)nc2c1CCC(=O)N2CC1CCCCC1`: 963 s. The compound `Cc1ccc(NC(=O)Nc2c(-c3ccc(F)cc3)nc3ccccn23)cc1` yielded an RP-LC retention time of 692 s. On to `CCC(C)NC(=O)c1cc(C)nc2ccc(Cl)cc12` (stereo not given), for which the RP-LC retention time is 770 s.

The compound `COc1cccc(-c2nc(Cn3c(C)nc4ccccc4c3=O)no2)c1OC` yielded an RP-LC retention time of 816 s.

Take `CCn1c(=O)c(=O)n(CC(=O)NC2CCCCCC2)c2cccnc21`: the RP-LC retention time worked out at 760 s. Turning to `Cc1cc(C)n(Cc2nc(-c3ccc(NC(=O)C(C)C)cc3)oc2C)n1`, the RP-LC retention time came out at 816 s. In the case of `COc1ccc(-c2ccnn2-c2ccc(SCc3cccc(C)c3)nn2)cc1`, the RP-LC retention time worked out at 1400 s. Compound `O=C(NCCCN1CCCCC1)c1ccc2c(c1)NC(=O)C1CCCCN21` (stereo not given) yielded an RP-LC retention time of 600 s. In the case of `COc1ccccc1C(=O)Nc1nc(-c2ccc3c(c2)NC(=O)C(C)O3)cs1` (stereo not given), the RP-LC retention time turned out to be 924 s. With `c1cc(CN2CCC(Oc3nccnc3N3CCOCC3)C2)ccn1` (stereo not given), the RP-LC retention time amounted to 546 s. Compound `CCn1cc(S(=O)(=O)Nc2ccc(C)cc2F)c2cccnc21` yielded an RP-LC retention time of 869 s. Turning to `CCOC(=O)CC(=O)CSc1nc(-c2ccccc2)ns1`, the RP-LC retention time was 993 s. The compound `CCn1ccc(C(=O)N2CCc3cc(-c4csc(C5CC5)n4)ccc32)n1` came in with an RP-LC retention time of 1050 s. For the compound `CCCCCc1cc(O)c2c(c1)OC(C)(C)[C@@H]1CCC(C(=O)O)=CC21` (stereo not given in full), the RP-LC retention time is 1130 s. As for `CCc1nc2cc(-c3noc(-c4ccc(C)c(F)c4)n3)ccc2o1`, the RP-LC retention time was determined as 1350 s. Take `CCc1cc2c3c([nH]c2cc1S(=O)(=O)N1CCN(c2ccccn2)CC1)CC(C)(C)CC3=O`: the RP-LC retention time was determined as 695 s. In turn, `CCOc1ccc(-c2noc(CN3C(=O)COc4ccccc43)n2)cc1OC` had an RP-LC retention time of 968 s. For `Cc1cc(F)ccc1NC(=O)Cn1c(C)cc(-c2nnc(C3CCC3)o2)c1C`, the RP-LC retention time is 934 s. The compound `O=C1CCCCC(Cc2ccccc2)(C(=O)NCCc2ccccc2)N1` (stereo not given) displayed an RP-LC retention time of 806 s. `COc1ccccc1-c1csc(NC(=O)c2sc(C)nc2C)n1` had an RP-LC retention time of 900 s. Next, `CCN1C(=O)CCC2(C(=O)NCCc3c[nH]c4ccccc34)CCCC=C12` (stereo not given): 743 s; `CCCCN(CC)c1nc(-c2ccc(C)cc2)nc2ccccc12`: 941 s; `COCc1nc2cccnc2n1C1CCN(C(=O)Nc2cc(OC)c(OC)c(OC)c2)CC1`: 659 s.

The compound `CN(C)C(=O)c1n[nH]c2c1CN(C(=O)CCC(=O)c1ccc(F)cc1)CC2` gave an RP-LC retention time of 653 s.

The compound `CNC(=O)c1cc(C(=O)c2ccc3nc(Nc4cccc(C(F)(F)F)c4)[nH]c3c2)ccn1` registered an RP-LC retention time of 747 s.

The compound `CCN1CCn2c(nc3cc(C(=O)NCc4ccc(OC(C)C)cc4)ccc32)C1=O` displayed an RP-LC retention time of 726 s.

`COc1ccc(-c2noc(C3CC(=O)N(c4ccc5c(c4)OCCO5)C3)n2)cc1` (stereo not given) displayed an RP-LC retention time of 897 s.

`Cc1ccc(S(=O)(=O)N2CCC(CCNC(=O)NC(C)(C)C)CC2)cc1`: the RP-LC retention time turned out to be 885 s.

Compound `COC(=O)c1cc(OCC(=O)Nc2ccc3c(c2)OCCO3)c2ccccc2n1` displayed an RP-LC retention time of 755 s.

The compound `COc1cc(-c2noc(-c3nc(-c4ccccc4)no3)n2)cc(OC)c1OC` gave an RP-LC retention time of 1070 s. For `Cn1ncc2c3ccccc3n(CCCC(=O)N3CCN(c4ccccc4)CC3)c2c1=O`, the RP-LC retention time came to 918 s. Turning to `Cc1ccc(S(=O)(=O)Nc2cc(C(=O)O)ccc2N2CCN(c3ccccn3)CC2)cc1`, the RP-LC retention time turned out to be 673 s.

As to `CCc1ccc2c(c1)-c1ccccc1S(=O)(=O)N2CC(=O)NCCCn1ccnc1`, the RP-LC retention time amounted to 675 s.

Turning to `CCn1ccc2oc(C)c(C(=O)N3CCN(c4ccc(Cl)cc4)CC3)c2c1=O`, the RP-LC retention time is 854 s.

As for `Cc1cc(C(=O)Nc2nc(-c3cc4ccccc4o3)cs2)on1`, the RP-LC retention time came out at 948 s.

As for `COc1ccc(Br)c(CC2C(=O)Nc3ccccc32)c1` (stereo not given), the RP-LC retention time stood at 944 s.

Take `CCCN1C(=O)COc2ccc(-c3csc(NC(=O)CCC4CCCCC4)n3)cc21`: the RP-LC retention time was 1270 s. Regarding `O=C(CSc1nccn1Cc1ccco1)NC1CCCCC1`, the RP-LC retention time amounted to 589 s. Next, `O=C(N[C@H]1C[C@@H]2C[C@H]1CN2C(=O)c1ccccc1Cl)c1cccs1`: 701 s. Next, `O=C(CCc1c(-c2ccccc2)nc2ccccn12)NCc1cccc(Cl)c1`: 681 s; `Cn1c(=O)oc2cc(-c3noc(-c4cccc(Br)c4)n3)ccc21`: 1190 s; `CCNc1cc(N2CCC(CCC(=O)NCc3nc4ccccc4n3C)CC2)ncn1`: 554 s. The same measure for `Cc1ccc(-n2ccc(=O)c(-c3nc(-c4cccc(Cl)c4)no3)n2)cc1`: 1030 s. For the compound `CNC(=O)C1CCCN(C(=O)Nc2ccc(NC(=O)Nc3ccc(F)cc3)cc2)C1` (stereo not given), the RP-LC retention time was 665 s. In turn, `O=C(Nc1cnc(N2CCCC2)nc1)c1ccc(Cl)cc1` came in with an RP-LC retention time of 765 s. The compound `Cc1cccc(NC(=O)Cc2cn3cc(F)ccc3n2)c1C` came in with an RP-LC retention time of 600 s. The same measure for `CC1CCCC(NC(=O)Cn2cnc3onc(-c4ccc(Cl)cc4)c3c2=O)C1C` (stereo not given): 1100 s; for `Cc1cccc(OCc2nc(CCN(C)C(=O)Nc3cc(F)ccc3F)no2)c1`: 1000 s; for `COc1ccc(N2CC(c3nc(-c4ccc(N(C)C)cc4)no3)CC2=O)cc1Cl` (stereo not given): 1030 s.

`O=C(NCc1ccccn1)C1CCN(c2cc(N3CCCCC3)ncn2)CC1` yielded an RP-LC retention time of 558 s.

On to `O=C(O)c1ccc(Nc2nc(-c3ccc(Br)cc3)cs2)cc1`, for which the RP-LC retention time amounted to 989 s. Compound `CC(=O)N(C1CCOCC1)C1CCN(C(=O)Nc2ccccc2)CC1` showed an RP-LC retention time of 655 s. Compound `Cc1ccc(-n2c(N3CCCC(C(=O)NCc4ccc(F)cc4)C3)nc3ccsc3c2=O)cc1` (stereo not given) gave an RP-LC retention time of 919 s. Next, `Cc1ccc2oc(-c3nnc(C(=O)NCCCN4CCCC4)o3)c(C)c2c1`: 688 s. Take `O=C(Nc1ccc(F)cc1Cl)c1c(O)c2cccnc2n(-c2ccc(F)cc2)c1=O`: the RP-LC retention time stood at 1300 s.

`O=C(CN1C(=O)C2CCCCN2c2ccc(S(=O)(=O)N3CCCC3)cc21)NCCc1ccccc1` (stereo not given) showed an RP-LC retention time of 966 s. Compound `Cc1ccc(NC(=O)c2cn(-c3cc(-c4nc(C5CC5)no4)ccn3)cn2)c(C)c1` returned an RP-LC retention time of 1090 s.
